Reference: patent US20250108038A1 (priority 2023, published 2025)
Values joined by “and” are separate entries in the source; they are usually repeats but may differ in a detail not shown here. Equal values may be shown once.

Test system: Long Evans rats
Assay: Behavioral satiety sequence (BSS)
Format: in vivo, Long Evans rat
From the text: The Behavioural Satiety Sequence (BSS) is a technique used to evaluate physiological satiety. It is based on the expression of a sequence of behaviors including eating, grooming, locomotor activity, followed by resting, which are typically observed in rodents post-ingestion (Halford et al, 1998, Pharmacology Biochemistry and Behaviour. 61(2): 159-168). The BSS is a widely used model for determining the effects of novel pharmaceuticals on food intake and measures of satiety in rodents (Oliveira et al, 2011, Revista de Nutrição. 24(4) 619-628), and to discriminate the cause of reduced food intake following pharmacological manipulation. For example, treatments that may reduce food intake by non-specific mechanisms, such as immobility, malaise, and taste adulteration, will disrupt this sequence (Halford et al, 1998, Pharmacology Biochemistry and Behaviour. 61(2): 159-168).
Specifically, 12 male Long-Evans rats were food-deprived for 22 h with a 2 h feeding period each day. Rats were trained to consume daily food during the 2 h period over 25 days. The testing phase was initiated once the rats consistently consumed 16-18 g of food per day with ≤10% variance in amount of feed consumed. Feeding took place in designated individual boxes in a quiet room separate from the housing room. Continuous remote monitoring via video camera during feeding was used to assess the BSS. Food consumption was measured by weighing the total available food before and after the 2 h feeding window, correcting for spillage. Lorcaserin (1 mg/kg) was included as a reference control (Higgins et al, 2011, Neuropsychopharmacology. 37(5): 1177-1191). Subjects were tested using a repeated-measures, Latin square design with 2-3 days wash-out between treatment cycles.
On scheduled test days, animals were monitored remotely via video camera during the feeding access period. The occurrence of four mutually exclusive behaviors (eating/drinking, grooming, active, rest) were individually scored. Over the 2 h feeding period, behaviors were assessed every 30 seconds. Scores were compiled into 23 5 min timebins (timebin 24 was removed due to early removal of animals) and the frequency of each behavior within each timebin was calculated to determine a temporal frequency of each measure (Rodgers et al, 2010, Pharmacology Biochemistry and Behaviour. 97: 3-14). Percentage time was plotted for each behavioral sequence in each timebin to compare between treatment groups (Higgins et al, 2011, Neuropsychopharmacology. 37(5): 1177-1191).

[1] = Compound I-19 0.3 mg/kg, raw score per animal (LT-1 to LT-12)
[2] = Compound I-19 1 mg/kg i.p., AVG of the group
[3] = Compound I-19 1 mg/kg i.p., raw score per animal
[4] = Compound I-19 1 mg/kg, AVG of 12 animals

Clc1ccc(C2(OCC3OCCO3)c3ccccc3C3=NCCN32)cc1 (stereo not drawn) [Compound I-19]
BSS scoring G (grooming), Time Bin 22 (105-110 TOTAL) [1]: 0 (11×) and 1
BSS scoring G (grooming), Time Bin 23 (110-115 TOTAL) [1]: 1 (4×) and 0 (7×) and 2
BSS scoring G (grooming), Time Bin 24 (115-120 TOTAL) [1]: 0 (7×) and 1 (5×)
BSS scoring R (resting), Time Bin 19 (90-95 TOTAL) [1]: 1 (5×) and 0 (5×) and 2 and 6
BSS scoring R (resting), Time Bin 20 (95-100 TOTAL) [1]: 0 (6×) and 1 (3×) and 4 and 2 (2×)
BSS scoring R (resting), Time Bin 21 (100-105 TOTAL) [1]: 0 (5×) and 1 (2×) and 3 (3×) and 2 and 10
BSS scoring R (resting), Time Bin 22 (105-110 TOTAL) [1]: 0 (6×) and 4 and 10 and 6 and 1 and 2 (2×)
BSS scoring R (resting), Time Bin 23 (110-115 TOTAL) [1]: 0 (7×) and 3 and 6 (2×) and 2 (2×)
BSS scoring R (resting), Time Bin 24 (115-120 TOTAL) [1]: 0 (7×) and 10 and 6 and 7 and 1 (2×)
BSS scoring A (active), Time Bin 1 (0-5 TOTAL), AVG [2]: 0.11
BSS scoring A (active), Time Bin 2 (5-10 TOTAL), AVG [2]: 0.04
BSS scoring A (active), Time Bin 3 (10-15 TOTAL), AVG [2]: 0.07
BSS scoring A (active), Time Bin 4 (15-20 TOTAL), AVG [2]: 0.02
BSS scoring A (active), Time Bin 5 (20-25 TOTAL), AVG [2]: 0.10
BSS scoring A (active), Time Bin 6 (25-30 TOTAL), AVG [2]: 0.17
BSS scoring E (eating/drinking), Time Bin 1 (0-5 TOTAL), AVG [2]: 0.88
BSS scoring E (eating/drinking), Time Bin 2 (5-10 TOTAL), AVG [2]: 0.88
BSS scoring E (eating/drinking), Time Bin 3 (10-15 TOTAL), AVG [2]: 0.88
BSS scoring E (eating/drinking), Time Bin 4 (15-20 TOTAL), AVG [2]: 0.93
BSS scoring E (eating/drinking), Time Bin 5 (20-25 TOTAL), AVG [2]: 0.83
BSS scoring E (eating/drinking), Time Bin 6 (25-30 TOTAL), AVG [2]: 0.80
BSS scoring G (grooming), Time Bin 1 (0-5 TOTAL), AVG [2]: 0.02
BSS scoring G (grooming), Time Bin 2 (5-10 TOTAL), AVG [2]: 0.07
BSS scoring G (grooming), Time Bin 3 (10-15 TOTAL), AVG [2]: 0.03
BSS scoring G (grooming), Time Bin 4 (15-20 TOTAL), AVG [2]: 0.03
BSS scoring G (grooming), Time Bin 5 (20-25 TOTAL), AVG [2]: 0.03
BSS scoring G (grooming), Time Bin 6 (25-30 TOTAL), AVG [2]: 0.01
BSS scoring R (resting), Time Bin 1 (0-5 TOTAL), AVG [2]: 0.00
BSS scoring R (resting), Time Bin 2 (5-10 TOTAL), AVG [2]: 0.01
BSS scoring R (resting), Time Bin 3 (10-15 TOTAL), AVG [2]: 0.02
BSS scoring R (resting), Time Bin 4 (15-20 TOTAL), AVG [2]: 0.03
BSS scoring R (resting), Time Bin 5 (20-25 TOTAL), AVG [2]: 0.03
BSS scoring R (resting), Time Bin 6 (25-30 TOTAL), AVG [2]: 0.03
BSS scoring A (active), Time Bin 1 (0-5 TOTAL) [3]: 0 (3×) and 1 (5×) and 2 (4×)
BSS scoring A (active), Time Bin 2 (5-10 TOTAL) [3]: 0 (8×) and 2 and 1 (3×)
BSS scoring A (active), Time Bin 3 (10-15 TOTAL) [3]: 0 (4×) and 1 (8×)
BSS scoring A (active), Time Bin 4 (15-20 TOTAL) [3]: 0 (10×) and 1 (2×)
BSS scoring A (active), Time Bin 5 (20-25 TOTAL) [3]: 2 (2×) and 0 (5×) and 1 (4×) and 4
BSS scoring A (active), Time Bin 6 (25-30 TOTAL) [3]: 2 (3×) and 0 (5×) and 7 and 3 (2×) and 1
BSS scoring E (eating/drinking), Time Bin 1 (0-5 TOTAL) [3]: 10 (3×) and 9 (4×) and 7 and 8 (4×)
BSS scoring E (eating/drinking), Time Bin 2 (5-10 TOTAL) [3]: 10 (4×) and 8 (4×) and 9 (3×) and 7
BSS scoring E (eating/drinking), Time Bin 3 (10-15 TOTAL) [3]: 10 (3×) and 9 (5×) and 8 (3×) and 7
BSS scoring E (eating/drinking), Time Bin 4 (15-20 TOTAL) [3]: 10 (5×) and 9 (6×) and 8
BSS scoring E (eating/drinking), Time Bin 5 (20-25 TOTAL) [3]: 7 (2×) and 10 (3×) and 9 (4×) and 8 (2×) and 4
BSS scoring E (eating/drinking), Time Bin 6 (25-30 TOTAL) [3]: 6 and 10 (5×) and 1 and 7 (2×) and 9 and 8 (2×)
BSS scoring G (grooming), Time Bin 1 (0-5 TOTAL) [3]: 0 (10×) and 1 (2×)
BSS scoring G (grooming), Time Bin 2 (5-10 TOTAL) [3]: 0 (6×) and 2 (2×) and 1 (4×)
BSS scoring G (grooming), Time Bin 3 (10-15 TOTAL) [3]: 0 (9×) and 1 (2×) and 2
BSS scoring G (grooming), Time Bin 4 (15-20 TOTAL) [3]: 0 (9×) and 1 (3×)
BSS scoring G (grooming), Time Bin 5 (20-25 TOTAL) [3]: 1 (4×) and 0 (8×)
BSS scoring G (grooming), Time Bin 6 (25-30 TOTAL) [3]: 0 (11×) and 1
BSS scoring R (resting), Time Bin 1 (0-5 TOTAL) [3]: 0
BSS scoring R (resting), Time Bin 2 (5-10 TOTAL) [3]: 0 (11×) and 1
BSS scoring R (resting), Time Bin 3 (10-15 TOTAL) [3]: 0 (10×) and 1 (2×)
BSS scoring R (resting), Time Bin 4 (15-20 TOTAL) [3]: 0 (9×) and 1 (3×)
BSS scoring R (resting), Time Bin 5 (20-25 TOTAL) [3]: 0 (9×) and 1 (2×) and 2
BSS scoring R (resting), Time Bin 6 (25-30 TOTAL) [3]: 2 and 0 (10×) and 1
BSS scoring A (active), Time Bin 13 (60-65 TOTAL), AVG [4]: 0.09
BSS scoring A (active), Time Bin 14 (65-70 TOTAL), AVG [4]: 0.13
BSS scoring A (active), Time Bin 15 (70-75 TOTAL), AVG [4]: 0.17
BSS scoring A (active), Time Bin 16 (75-80 TOTAL), AVG [4]: 0.16
BSS scoring A (active), Time Bin 17 (80-85 TOTAL), AVG [4]: 0.18
BSS scoring A (active), Time Bin 18 (85-90 TOTAL), AVG [4]: 0.12
BSS scoring E (eating/drinking), Time Bin 13 (60-65 TOTAL), AVG [4]: 0.73
BSS scoring E (eating/drinking), Time Bin 14 (65-70 TOTAL), AVG [4]: 0.73
BSS scoring E (eating/drinking), Time Bin 15 (70-75 TOTAL), AVG [4]: 0.65
BSS scoring E (eating/drinking), Time Bin 16 (75-80 TOTAL), AVG [4]: 0.64
BSS scoring E (eating/drinking), Time Bin 17 (80-85 TOTAL), AVG [4]: 0.68
BSS scoring E (eating/drinking), Time Bin 18 (85-90 TOTAL), AVG [4]: 0.54
BSS scoring G (grooming), Time Bin 13 (60-65 TOTAL), AVG [4]: 0.06
BSS scoring G (grooming), Time Bin 14 (65-70 TOTAL), AVG [4]: 0.03
BSS scoring G (grooming), Time Bin 15 (70-75 TOTAL), AVG [4]: 0.05
BSS scoring G (grooming), Time Bin 16 (75-80 TOTAL), AVG [4]: 0.03
BSS scoring G (grooming), Time Bin 17 (80-85 TOTAL), AVG [4]: 0.01
BSS scoring G (grooming), Time Bin 18 (85-90 TOTAL), AVG [4]: 0.03
